Key:
A549 cells = test: Anchorage Independence/Soft Agar Assay, A549; type: cell-based, human; parameters: PERCENTAGE SURVIVAL RELATIVE TO MS, A549, n = 2: tested at 2 µg; conditions: soft agar
Method: (§1) The Anchorage Independence/Soft Agar Assay allows assessment of the influence of modulation of gene expression on clonal tumouroid formation by observing and quantifying tumouroid morphology and colony number over an extended period of logarithmic growth thereby ascertaining any cell death is induced.
(§2) Cells are seeded into a 6-well plate and allowed to adhere overnight at 37° C. in a humidified atmosphere containing 5% CO2 in air. Cells are next transfected with siRNA Oligomers, at a concentration of 2 μg, against the genes of interest. Transfections continued for 4 hrs after which the transfection solution is removed and cells are refed with fresh medium and allowed incubate overnight. Transfected cells are next harvested for seeding into soft agar assay as described below. Cells are seeded at 5×10^4 cells per well of a 6 well plate and incubated over a 12/14-Day period whilst proliferating in a 0.05% Agar/Medium cell suspension at 37° C. in a humidified atmosphere containing 5% CO2 in air. Colonies formed are subsequently stained with Crystal Violet, their morphology is assessed and colonies formed are enumerated at a 4× magnification.
(§3) The cytotoxic effect of each gene is determined by a reduction in colony number compared to our MS control, but any influence on the morphology of the colony is also noted.
(§4) Examples of genes with a cytotoxic effect on knockdown as detected by the soft agar assay are outlined in Table 14. Table 14 gives the percentage survival of the indicated cell lines post transfection with siRNA oligomers to target genes relative to that of the missense in an anchorage independent assay. As an internal reference, the known survival gene Survivin was also targeted by siRNA. This table illustrates the magnitude of cytotoxicity induced by the knockdown of each target gene compared to the MS control i.e. the number of colonies formed are stained with Crystal violet and enumerated visually as discussed.

HCT15 cells = test: Anchorage Independence/Soft Agar Assay, HCT15; type: cell-based, human; parameters: PERCENTAGE SURVIVAL RELATIVE TO MS, HCT15, n = 2: tested at 2 µg; PERCENTAGE SURVIVAL RELATIVE TO MS, HCT15, n = 1: tested at 2 µg siRNA; conditions: soft agar
Method: as §1, §2, §3, §4

MCF7 cells = test: Anchorage Independence/Soft Agar Assay, MCF7; type: cell-based, human; parameters: PERCENTAGE SURVIVAL RELATIVE TO MS, MCF7, n = 2: tested at 2 µg; conditions: soft agar
Method: as §1, §2, §3, §4

U251 cells = test: Anchorage Independence/Soft Agar Assay, U251; type: cell-based, human; conditions: soft agar, experiment n = 1
Method: as §1
as §2, with “Cells are seeded at 5×10^4 cells per well of a 6 well plate and incubated over a 12/14-Day period whilst proliferating in a 0.05% Agar/Medium cell suspension at 37° C. in a humidified atmosphere containing 5% CO2 in air.” left out
as §3
(§5) Examples of genes with a cytotoxic effect on knockdown as detected by the soft agar assay are outlined in Table 14. […]

PC3 cells [1] = test: Anchorage Independence/Soft Agar Assay, PC3; type: cell-based, human; conditions: soft agar, experiment n = 1
Method: as §1
as §2, with “Cells are seeded at 5×10^4 cells per well of a 6 well plate and incubated over a 12/14-Day period whilst proliferating in a 0.05% Agar/Medium cell suspension at 37° C. in a humidified atmosphere containing 5% CO2 in air.” left out
as §3, §5

cancer cell lines = test: Anchorage Independence/Soft Agar Assay, summary over the cell lines; type: cell-based, human; conditions: 14-day anchorage independent assay, over the cell lines examined
Method: as §1, §2, §3
As an internal reference, the known survival gene ‘Survivin’ was also targeted by siRNA.

PC3 cells [2] = test: Cell Migration Assay (Chemicon ECM550, Boyden Chamber); type: cell-based, human; conditions: 48 hours post siRNA transfection, 24-hour migration, compared to missense and UPA controls
Method: Cells are seeded into a 6-well plate and allowed to adhere overnight at 37° C. in a humidified atmosphere containing 5% CO2 in air. Cells are next transfected with siRNA oligonucleotides, at a concentration of 2 μg/ml, against the genes of interest, as described in detail in Example 5. Transfections are continued for 4 hrs after which the transfection solution is removed and cells are refed with fresh medium and allowed incubate overnight. Transfected cells are next harvested for seeding into migration assay as described below.
The Chemicon Cell Migration Assay (ECM550) is used to quantify the number of PC3 cells that successfully migrate across a Boyden Chamber towards a chemoattractant over a 24-hour incubation period. Assessment of PC3 cell migration is performed routinely 48 hours post siRNA Transfection. The effect of reducing the expression of genes of interest is compared to that of a missense control oligomer and to the influence of UPA knockdown, which is reported in the literature to decrease PC3 cell migration. The Migration Assay is performed as per manufacturers inductions. Results are illustrated in FIGS. 39 to 41.
Cells were plated and transfected with the indicated siRNA as described above. Migration of PC3 cells was tracked using a fluorescent dye. Consequently increases in fluorescent units correlates positively with increased migration.

[3] = test system: OAS1 and GBP1 mRNA in HCT15, A549, SKOV3, DU145, PC3, A498, U251 cells; test: Interferon response genes mRNA by QPCR after siRNA transfection; type: cell-based, human; conditions: compared to untransfected cells
From the text: Inhibiting gene expression using siRNA has been associated with non-specific induction of interferon from target cells (Sledz C A et al. Nat Cell Biol. September 2003; 5(9): 834-9. 2003). Since induction of interferon may possibly affect biological assays, we control for the effect of our siRNA oligonucleotides on inducing interferon. This is examined by quantitating message RNA levels for two interferon responsive genes, namely OAS1, and GBP1, both before and after siRNA transfection.
QPCR Primers, designed by MWG Biotech as described previously, are as follows.
The levels of expression of OAS1 and GBP1 in siRNA-transfected cells are expressed as a percentage of that in untransfected control cells.

ELAV-1 = test: Validation of missense control siRNA on ELAV-1 expression; type: cell-based; conditions: missense control with 4 base pair mismatch substitutions
From the text: The missense control outlined above is designed by introducing 4 base pair mismatch substitutions into the siRNA oligo sequence for ELAV-1 (Accession number xm—008947; gi 1475941).

[4] = test system: human primary neutrophils; test: Neutrophil apoptosis by sub G1 analysis (DNA fragmentation); type: cell-based; conditions: neutrophils cultured overnight with GM-CSF (65% without)
Method: Neutrophils are isolated from the blood as described in WO 02/04657 and resuspended at a concentration of 2×10^6/ml. Five hundred microlitres are pipetted into wells of a 24 well plate and incubated in the presence or absence of survival factors.
After this incubation, the neutrophils are carefully resuspended by gentle agitation and the total contents of the well are placed into an eppendorf and centrifuged@2800 rpm for 2 min@RT in a minifuge. The cell pellet is carefully resuspended in 300 μl of ice cold hypotonic fluorochrome solution (50 μg/ml Propidium Iodide, 0.1% Sodium Citrate and 0.1% Triton X-100) and placed in a fridge for 24 h@4° C.
Prepared samples are analysed with a FacsCalibre flow cytometer (Becton Dickinson) using double discrimination to ensure single cell suspension with Log Forward and Side Scatter Parameter acquisition.
(§6) Neutrophils are seeded at 2×10^6/ml in a 24 well plate in full culture medium (1 ml/well). A PI3K inhibitor (Ly294002) is added to the neutrophils to a final concentration of 20 μM prior to the addition of GM-CSF (50 units/ml). Control wells received either no GM-CSF or F GM-CSF (50 units/ml) in the absence of inhibitor. Neutrophils are cultured for 18 h at 37° C. prior to harvest and prepared for sub G1 analysis, as previously described.
as §6, with “An AKT” for “A PI3K”, “([1L-6-Hydroxymethyl-chiro-inositol 2-O-methyl-3-O-octadecylcarbonate] (Calbiochem))” for “(Ly294002)”, “μM and incubated for 2 h” for “μM”, “receive” for “received”, “or” for “or F”

TF1 cells [5] = test: TF1 apoptosis by light scatter (FSC/SSC, live gate) analysis; type: cell-based, human; conditions: TF1, 48 h, with GM-CSF 2 ng/ml (35% upon factor withdrawal)
Method: Light Scatter Analysis takes advantage of the fact that by using the laser beam of a flow cytometer one can determine the size (Forward Scatter) and granularity (Side Scatter) of a cell. The morphological changes associated with apoptosis, such as decreased size (shrinkage) and granularity affect these parameters. As a consequence, cells undergoing apoptosis will move to the left and slightly down, from the parameters of a healthy population.
TF1 cells are plated into 24 well plates (2×10^5/ml) and are cultured for 48 h in the presence or absence of GM-CSF (2 ng/ml). Cells are then harvested by centrifugation (1000 rpm, for 10 min) and washed in PBS. […] Forward and Side scatter parameters are assessed using Cell Quest software.
Culturing TF1 cells in the absence of GM-CSF induces cell death. This death induces morphological changes in the Forward and Side Scatter parameters that can be detected by FacsCalibre analysis. […]
To assess the antiapoptotic effect of BCL2 over-expression in TF1 cells, cells are transduced with either retrovirus expressing full length BCL2 coding sequence or control vector lacking BCL2. […] The percentage of transduced cells remaining in the live gate (an arbitrary region pre-set on a healthy population of TF1 cells grown in the presence of GM-CSF (2 ng/ml)) is recorded. An index of antiapoptotic activity is calculated by computing the difference in samples ±GMCSF. […]

TF1 cells [6] = test: TF1 apoptosis by sub G1 analysis; type: cell-based, human; conditions: TF1, 48 h, with GM-CSF (approximately 55% in the absence)
Method: TF1 cells are cultured for 48 h in the presence or absence of GM-CSF (2 ng/ml). Cells are then harvested by centrifugation (1000 rpm, for 10 min) and washed in PBS. The pellet is resuspended in PBS (2×10^5 cells/ml) and 1 ml is then added in a dropwise fashion to ice cold 70% EtoH whilst continuously vortexing. Cells are then permeabilized by incubating at −20° C. for 24 h. To stain DNA, cells are centrifuged and washed in PBS. Cells are resuspended in 500 μl Propidium Iodide Buffer (Propidium iodide (50 μg/ml); RNAse A (50 μg/ml) for 15 min in the dark before flow cytometric analysis using a FacsCalibre (Becton Dickinson). Analysis is performed using Cell Quest software.

siRNA CNK/PRK: sense UCGUAGUGCUUGUACUUACtt, antisense GUAAGUACAAGCACUACGAtt (sense UCGUAGUGCUUGUACUUACTT; antisense GUAAGUACAAGCACUACGATT; chemistry not given here)
PERCENTAGE SURVIVAL RELATIVE TO MS, A549, n = 1 (A549 cells; experiment n = 1): 91% | PERCENTAGE SURVIVAL RELATIVE TO MS, A549, n = 2 (A549 cells; experiment n = 2): 39.6% | PERCENTAGE SURVIVAL RELATIVE TO MS, HCT15, n = 1 (HCT15 cells; experiment n = 1): 38.6% | PERCENTAGE SURVIVAL RELATIVE TO MS, HCT15, n = 2 (HCT15 cells; experiment n = 2): 72.3% | PERCENTAGE SURVIVAL RELATIVE TO MS, MCF7, n = 1 (MCF7 cells; experiment n = 1): 98.2% | PERCENTAGE SURVIVAL RELATIVE TO MS, MCF7, n = 2 (MCF7 cells; experiment n = 2): 66.3% | PERCENTAGE SURVIVAL RELATIVE TO MS, U251, n = 1 (U251 cells): 13.5% | PERCENTAGE SURVIVAL RELATIVE TO MS, PC3, n = 1 (PC3 cells [1]): 10% | cell death / apoptosis in the soft agar assay (cancer cell lines): induced toxicity consistently in the HCT15 cell line | migration of PC3 cells (PC3 cells [2]): increases the ability of cancer cells to migrate

siRNA MS: missense control siRNA, sense UGAGAAUGUGAUGCGCGUCTT, antisense GACGCGCAUCACAUUCUCATT (chemistry not given here)
mRNA levels of interferon response genes OAS1 and GBP1 ([3]; HCT15, A549, SKOV3, DU145 and U251 cells): does not increase mRNA levels of interferon response genes | mRNA levels of interferon response genes OAS1 and GBP1 ([3]; PC3 and A498 cells): Some increase in mRNA of interferon response genes | expression of ELAV-1 (ELAV-1): incapable of decreasing the expression ELAV-1

GM-CSF: a 22 kDa proinflammatory cytokine; survival factor for neutrophils and TF1 cells
percentage of cells with a sub G1 profile [4]: 9.7% | percentage of cells in the live gate (TF1 cells [5]): 77% | cells with sub-G1 profiles (TF1 cells [6]): 5%

Source: patent publication US20050019746A1, “Apoptosis-related kinase/GPCRs” (EiRx Therapeutics Limited, priority 2003, published 2005)
